Reference: PubChem BioAssay AID272 (DTP/NCI, 2004)
Values joined by “and” are separate entries in the source; they are usually repeats but may differ in a detail not shown here. Identical values can stand only once. Records with an inconclusive call do not appear.

System: Lewis lung carcinoma i.m., BDF1 mice, T/C %
Test: NCI In Vivo Anticancer Drug Screen. Data for tumor model Lewis Lung Carcinoma (intramuscular) in B6D2F1 (BDF1) mice
Procedure, shortened: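 Value is the ratio of a treated-group measurement (T) to the matching vehicle-control measurement (C), using either survival or tumour size in mice bearing transplanted tumours.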

[1] = endpoint: mean tumor weight, dose: 50.0 mg/kg/injection, schedule: Q01DX011 (ip), vehicle: other, higher = larger tumour
[2] = endpoint: median survival time, dose: 50.0 mg/kg/injection, schedule: Q01DX011 (ip), vehicle: other, higher = longer survival
[3] = endpoint: median survival time, dose: 100.0 mg/kg/injection, schedule: Q01DX011 (ip), vehicle: other, higher = longer survival
[4] = endpoint: mean tumor weight (est.), dose: 25.0 mg/kg/injection, schedule: Q01DX011 (ip), vehicle: saline with Tween-80, higher = larger tumour
[5] = endpoint: median survival time, dose: 12.5 mg/kg/injection, schedule: Q01DX011 (ip), vehicle: saline with Tween-80, higher = longer survival
[6] = endpoint: mean tumor weight (est.), dose: 10.0 mg/kg/injection, schedule: Q01DX011 (ip), vehicle: saline with Tween-80, higher = larger tumour
[7] = endpoint: mean tumor weight (est.), dose: 20.0 mg/kg/injection, schedule: Q01DX011 (ip), vehicle: saline with Tween-80, higher = larger tumour
[8] = endpoint: median survival time, dose: 50.0 mg/kg/injection, schedule: Q01DX011 (ip), vehicle: saline with Tween-80, higher = longer survival

SMILES: NC(=S)N/N=C/c1ccc(O)cn1
- T/C (endpoint: mean tumor weight, dose: 5.0 mg/kg/injection, schedule: Q03HX024 (ip), vehicle: other, higher = larger tumour): 60 % of control
- T/C (endpoint: mean tumor weight, dose: 10.0 mg/kg/injection, schedule: Q03HX024 (ip), vehicle: other, higher = larger tumour): 46 % of control
- T/C (endpoint: mean tumor weight, dose: 50.0 mg/kg/injection, schedule: Q01DX009 (ip), vehicle: other, higher = larger tumour): 15 % of control
- T/C [1]: 18 % of control and 40 % of control
- T/C (endpoint: mean tumor weight, dose: 100.0 mg/kg/injection, schedule: Q01DX011 (ip), vehicle: other, higher = larger tumour): 17 % of control
- T/C (endpoint: mean tumor weight, dose: 200.0 mg/kg/injection, schedule: Q04DX003 (ip), vehicle: other, higher = larger tumour): 47 % of control
- T/C (endpoint: mean tumor weight, dose: 400.0 mg/kg/injection, schedule: Q04DX003 (ip), vehicle: other, higher = larger tumour): 28 % of control
- T/C (endpoint: median survival time, dose: 5.0 mg/kg/injection, schedule: Q03HX024 (ip), vehicle: other, higher = longer survival): 108 % of control
- T/C (endpoint: median survival time, dose: 10.0 mg/kg/injection, schedule: Q03HX024 (ip), vehicle: other, higher = longer survival): 112 % of control
- T/C [2]: 113 % of control
- T/C (endpoint: median survival time, dose: 100.0 mg/kg/injection, schedule: Q01DX009 (ip), vehicle: other, higher = longer survival): 170 % of control
- T/C [3]: 103 % of control
- T/C (endpoint: median survival time, dose: 200.0 mg/kg/injection, schedule: Q04DX003 (ip), vehicle: other, higher = longer survival): 120 % of control

SMILES: O=[N+]([O-])c1cc(Cl)cc2c1nc(NCCO)c1ccccc12
- T/C (endpoint: mean tumor weight (est.), dose: 12.5 mg/kg/injection, schedule: Q01DX011 (ip), vehicle: saline with Tween-80, higher = larger tumour): 70 % of control
- T/C [4]: 43 % of control
- T/C [5]: 98 % of control

SMILES: O=c1[nH]cc(F)c(=O)[nH]1
- T/C [6]: 37 % of control
- T/C [7]: 9 % of control
- T/C (endpoint: mean tumor weight, dose: 5.0 mg/kg/injection, schedule: Q01DX011 (ip), vehicle: other, higher = larger tumour): 93 % of control
- T/C (endpoint: mean tumor weight, dose: 5.0 mg/kg/injection, schedule: Q01DX011 (ip), vehicle: saline, higher = larger tumour): 71 % of control
- T/C (endpoint: mean tumor weight, dose: 10.0 mg/kg/injection, schedule: Q01DX011 (ip), vehicle: other, higher = larger tumour): 46 % of control
- T/C (endpoint: mean tumor weight, dose: 10.0 mg/kg/injection, schedule: Q01DX011 (ip), vehicle: saline, higher = larger tumour): 51 % of control and 57 % of control
- T/C (endpoint: mean tumor weight, dose: 20.0 mg/kg/injection, schedule: Q01DX011 (ip), vehicle: other, higher = larger tumour): 18 % of control
- T/C (endpoint: mean tumor weight, dose: 20.0 mg/kg/injection, schedule: Q01DX011 (ip), vehicle: saline, higher = larger tumour): 5 % of control
- T/C (endpoint: median survival time, dose: 5.0 mg/kg/injection, schedule: Q01DX011 (ip), vehicle: other, higher = longer survival): 100 % of control
- T/C (endpoint: median survival time, dose: 6.3 mg/kg/injection, schedule: Q04DX004 (ip), vehicle: saline, higher = longer survival): 112 % of control
- T/C (endpoint: median survival time, dose: 10.0 mg/kg/injection, schedule: Q01DX009 (ip), vehicle: saline, higher = longer survival): 112 % of control
- T/C (endpoint: median survival time, dose: 10.0 mg/kg/injection, schedule: Q01DX011 (ip), vehicle: other, higher = longer survival): 96 % of control
- T/C (endpoint: median survival time, dose: 12.5 mg/kg/injection, schedule: Q04DX004 (ip), vehicle: saline, higher = longer survival): 116 % of control
- T/C (endpoint: median survival time, dose: 20.0 mg/kg/injection, schedule: Q01DX009 (ip), vehicle: saline, higher = longer survival): 119 % of control
- T/C (endpoint: median survival time, dose: 20.0 mg/kg/injection, schedule: Q01DX011 (ip), vehicle: other, higher = longer survival): 122 % of control
- T/C (endpoint: median survival time, dose: 25.0 mg/kg/injection, schedule: Q04DX004 (ip), vehicle: saline, higher = longer survival): 108 % of control
- T/C (endpoint: median survival time, dose: 50.0 mg/kg/injection, schedule: Q04DX004 (ip), vehicle: saline, higher = longer survival): 89 % of control

SMILES: CCN(CC)CCN1C(=O)c2cccc3cccc(c23)C1=O
- T/C (endpoint: mean tumor weight (est.), dose: 27.5 mg/kg/injection, schedule: Q01DX011 (ip), vehicle: saline, higher = larger tumour): 76 % of control
- T/C (endpoint: mean tumor weight (est.), dose: 55.0 mg/kg/injection, schedule: Q01DX011 (ip), vehicle: saline, higher = larger tumour): 55 % of control
- T/C (endpoint: mean tumor weight (est.), dose: 110.0 mg/kg/injection, schedule: Q01DX011 (ip), vehicle: saline, higher = larger tumour): 64 % of control

SMILES: O=S(=O)(O)SCCNCCCCCC1CCCCC1
- T/C (endpoint: mean tumor weight (est.), dose: 0.75 mg/kg/injection, schedule: Q01DX011 (ip), vehicle: saline, higher = larger tumour): 78 % of control
- T/C (endpoint: mean tumor weight (est.), dose: 1.5 mg/kg/injection, schedule: Q01DX011 (ip), vehicle: saline, higher = larger tumour): 80 % of control
- T/C (endpoint: mean tumor weight (est.), dose: 3.0 mg/kg/injection, schedule: Q01DX011 (ip), vehicle: saline, higher = larger tumour): 88 % of control
- T/C (endpoint: mean tumor weight (est.), dose: 6.0 mg/kg/injection, schedule: Q01DX011 (ip), vehicle: saline, higher = larger tumour): 100 % of control
- T/C (endpoint: median survival time, dose: 0.75 mg/kg/injection, schedule: Q01DX011 (ip), vehicle: saline, higher = longer survival): 94 % of control
- T/C (endpoint: median survival time, dose: 1.5 mg/kg/injection, schedule: Q01DX011 (ip), vehicle: saline, higher = longer survival): 111 % of control
- T/C (endpoint: median survival time, dose: 3.0 mg/kg/injection, schedule: Q01DX011 (ip), vehicle: saline, higher = longer survival): 107 % of control
- T/C (endpoint: median survival time, dose: 6.0 mg/kg/injection, schedule: Q01DX011 (ip), vehicle: saline, higher = longer survival): 96 % of control

SMILES: O=C(CCl)Nc1ccc(C(=O)O)cc1
- T/C (endpoint: median survival time, dose: 3.75 mg/kg/injection, schedule: Q01DX011 (ip), vehicle: saline with Tween-80, higher = longer survival): 106 % of control
- T/C (endpoint: median survival time, dose: 7.5 mg/kg/injection, schedule: Q01DX011 (ip), vehicle: saline with Tween-80, higher = longer survival): 97 % of control
- T/C (endpoint: median survival time, dose: 15.0 mg/kg/injection, schedule: Q01DX011 (ip), vehicle: saline with Tween-80, higher = longer survival): 100 % of control

SMILES: Cc1ccc(NC(=O)N(CCCl)N=O)cc1C
- T/C (endpoint: median survival time, dose: 8.4 mg/kg/injection, schedule: Q07DX003 (ip), vehicle: Klucel (hydroxypropylcellulose) (HPC), higher = longer survival): 106 % of control
- T/C (endpoint: median survival time, dose: 14.0 mg/kg/injection, schedule: Q07DX003 (ip), vehicle: Klucel (hydroxypropylcellulose) (HPC), higher = longer survival): 91 % of control
- T/C (endpoint: median survival time, dose: 23.0 mg/kg/injection, schedule: Q07DX003 (ip), vehicle: Klucel (hydroxypropylcellulose) (HPC), higher = longer survival): 97 % of control

SMILES: O=[N+]([O-])c1cc([N+](=O)[O-])c(Nn2c3ccccc3c3ccccc32)c([N+](=O)[O-])c1
- T/C [5]: 97 % of control
- T/C (endpoint: median survival time, dose: 25.0 mg/kg/injection, schedule: Q01DX011 (ip), vehicle: saline with Tween-80, higher = longer survival): 102 % of control
- T/C [8]: 108 % of control

SMILES: Cc1[nH]c(=O)[nH]c(=O)c1N(CCF)CCCl
- T/C (endpoint: mean tumor weight (est.), dose: 5.0 mg/kg/injection, schedule: Q01DX011 (ip), vehicle: saline with Tween-80, higher = larger tumour): 69 % of control
- T/C (endpoint: mean tumor weight (est.), dose: 5.0 mg/kg/injection, schedule: Q01DX011 (ip), vehicle: saline, higher = larger tumour): 81 % of control
- T/C [6]: 74 % of control
- T/C (endpoint: mean tumor weight (est.), dose: 10.0 mg/kg/injection, schedule: Q01DX011 (ip), vehicle: saline, higher = larger tumour): 80 % of control
- T/C [7]: 54 % of control
- T/C (endpoint: mean tumor weight (est.), dose: 20.0 mg/kg/injection, schedule: Q01DX011 (ip), vehicle: saline, higher = larger tumour): 28 % of control
- T/C (endpoint: mean tumor weight (est.), dose: 40.0 mg/kg/injection, schedule: Q01DX011 (ip), vehicle: saline with Tween-80, higher = larger tumour): 24 % of control
- T/C (endpoint: median survival time, dose: 5.0 mg/kg/injection, schedule: Q01DX011 (ip), vehicle: saline with Tween-80, higher = longer survival): 101 % of control
- T/C (endpoint: median survival time, dose: 5.0 mg/kg/injection, schedule: Q01DX011 (ip), vehicle: saline, higher = longer survival): 109 % of control
- T/C (endpoint: median survival time, dose: 10.0 mg/kg/injection, schedule: Q01DX011 (ip), vehicle: saline with Tween-80, higher = longer survival): 105 % of control
- T/C (endpoint: median survival time, dose: 10.0 mg/kg/injection, schedule: Q01DX011 (ip), vehicle: saline, higher = longer survival): 119 % of control
- T/C (endpoint: median survival time, dose: 20.0 mg/kg/injection, schedule: Q01DX011 (ip), vehicle: saline with Tween-80, higher = longer survival): 100 % of control

SMILES: OCCNC1c2ccccc2-c2ccccc21
- T/C [4]: 90 % of control
- T/C (endpoint: mean tumor weight (est.), dose: 50.0 mg/kg/injection, schedule: Q01DX011 (ip), vehicle: saline with Tween-80, higher = larger tumour): 91 % of control
- T/C (endpoint: mean tumor weight (est.), dose: 100.0 mg/kg/injection, schedule: Q01DX011 (ip), vehicle: saline with Tween-80, higher = larger tumour): 67 % of control
- T/C [8]: 112 % of control

SMILES: Clc1ncnc2nc[nH]c12
- T/C (endpoint: mean tumor weight (est.), dose: 6.25 mg/kg/injection, schedule: Q01DX011 (ip), vehicle: other, higher = larger tumour): 76 % of control
- T/C (endpoint: mean tumor weight (est.), dose: 12.5 mg/kg/injection, schedule: Q01DX011 (ip), vehicle: other, higher = larger tumour): 91 % of control
- T/C (endpoint: mean tumor weight (est.), dose: 25.0 mg/kg/injection, schedule: Q01DX011 (ip), vehicle: other, higher = larger tumour): 105 % of control
- T/C (endpoint: mean tumor weight (est.), dose: 50.0 mg/kg/injection, schedule: Q01DX011 (ip), vehicle: other, higher = larger tumour): 89 % of control
- T/C (endpoint: mean tumor weight (est.), dose: 100.0 mg/kg/injection, schedule: Q01DX011 (ip), vehicle: other, higher = larger tumour): 74 % of control
- T/C (endpoint: mean tumor weight, dose: 3.13 mg/kg/injection, schedule: Q01DX011 (ip), vehicle: other, higher = larger tumour): 119 % of control
- T/C (endpoint: mean tumor weight, dose: 6.25 mg/kg/injection, schedule: Q01DX011 (ip), vehicle: other, higher = larger tumour): 103 % of control
- T/C (endpoint: mean tumor weight, dose: 12.5 mg/kg/injection, schedule: Q01DX011 (ip), vehicle: other, higher = larger tumour): 98 % of control
- T/C (endpoint: mean tumor weight, dose: 25.0 mg/kg/injection, schedule: Q01DX011 (ip), vehicle: other, higher = larger tumour): 50 % of control
- T/C [1]: 73 % of control
- T/C (endpoint: median survival time, dose: 3.13 mg/kg/injection, schedule: Q01DX011 (ip), vehicle: other, higher = longer survival): 96 % of control and 110 % of control
- T/C (endpoint: median survival time, dose: 25.0 mg/kg/injection, schedule: Q01DX011 (ip), vehicle: other, higher = longer survival): 96 % of control
- T/C [2]: 100 % of control and 116 % of control
- T/C [3]: 88 % of control
